Measurements taken from ChEMBL document CHEMBL5390242, “Design, Synthesis, and Antitumor Efficacy of Substituted 2-Amino[1,2,4]triazolopyrimidines and Related Heterocycles as Dual Inhibitors for Microtubule Polymerization and Janus Kinase 2” (J Med Chem, 2023).

How the values were obtained:
PC-3 = experiment: Antiproliferative activity against human PC-3 cells assessed as cell growth inhibition incubated for 48 hrs by MTT assay; type: functional, cell-based; conditions: PC-3, 48 h
[1] = Cytotoxicity against human ARPE-19 cells assessed as cell growth inhibition incubated for 48 hrs by MTT assay; type: toxicity, cell-based
MCF7 = experiment: cells; conditions: Homo sapiens, MCF7, 48 h
Description: Antiproliferative activity against human MCF7 cells assessed as cell growth inhibition incubated for 48 hrs by MTT assay

A549 [2] = experiment: Induction of mitochondrial membrane potential loss in human A549 cells by measuring green fluorescence at 50 nM incubated for 16 hrs by JC-1 staining based flow cytometry analysis (reference value: 0.7 %); type: functional
HT-29 = experiment: Antiproliferative activity against human HT-29 cells assessed as cell growth inhibition incubated for 48 hrs by MTT assay; type: functional, cell-based; conditions: HT-29, 48 h
HepG2 = experiment: Cytotoxicity against human HepG2 cells assessed as cell growth inhibition incubated for 48 hrs by MTT assay; type: functional, cell-based; conditions: HepG2, 48 h
[3] = Cytotoxicity against human HaCaT cells assessed as cell growth inhibition incubated for 48 hrs by MTT assay; type: toxicity, cell-based
[4] = Cytotoxicity against human L02 cells assessed as cell growth inhibition incubated for 48 hrs by MTT assay; type: toxicity, cell-based
A549 [5] = experiment: Induction of mitochondrial membrane potential loss in human A549 cells by measuring red fluorescence at 50 nM incubated for 16 hrs by JC-1 staining based flow cytometry analysis (reference value: 99.3 %); type: functional
A549 [6] = experiment: Induction of apoptosis in human A549 cells assessed as viable cells at 50 nM incubated for 24 hrs by Annexin V-FITC/PI staining based flow cytometry (reference value: 93 %); type: functional; conditions: read-out: Activity
A549 [7] = experiment: Antiproliferative activity against human A549 cells assessed as cell growth inhibition incubated for 48 hrs by MTT assay; type: functional, cell-based; conditions: A549, 48 h
A549 [8] = experiment: Induction of apoptosis in human A549 cells assessed as late apoptotic cells at 50 nM incubated for 24 hrs by Annexin V-FITC/PI staining based flow cytometry (reference value: 1.72 %); type: functional
[9] = Antiproliferative activity against Chinese hamster CHO-K1 cells assessed as cell growth inhibition incubated for 48 hrs by MTT assay; type: toxicity, cell-based, Cricetulus griseus
[10] = target: T1, Tyrosine-protein kinase JAK2 (Homo sapiens, UniProt O60674); experiment: Inhibition of JAK2 (unknown origin) using Poly-(Glu,Tyr 4:1) peptide as substrate at 1 uM in presence of ATP by ADP-Glo reagent based assay relative to control
CWR22R = experiment: Cytotoxicity against human 22Rv1 cells assessed as cell growth inhibition incubated for 48 hrs by MTT assay; type: functional, cell-based; conditions: 22Rv1, 48 h
[11] = Antiproliferative activity against Chinese hamster CHO cells assessed as cell growth inhibition incubated for 48 hrs by MTT assay; type: toxicity, cell-based, Cricetulus griseus
BXPC-3 = experiment: Antiproliferative activity against human BXPC-3 cells assessed as cell growth inhibition incubated for 48 hrs by MTT assay; type: functional, cell-based; conditions: BXPC-3, 48 h
A549 [12] = experiment: Induction of apoptosis in human A549 cells assessed as early apoptotic cells at 50 nM incubated for 24 hrs by Annexin V-FITC/PI staining based flow cytometry (reference value: 4.61 %); type: functional
A549 [13] = experiment: Induction of apoptosis in human A549 cells assessed as necrotic cells at 50 nM incubated for 24 hrs by Annexin V-FITC/PI staining based flow cytometry (reference value: 0.67 %); type: functional
COLO 205 = experiment: Cytotoxicity against human COLO 205 cells assessed as cell growth inhibition incubated for 48 hrs by MTT assay; type: functional, cell-based; conditions: COLO 205, 48 h
[14] = target: T1, Tyrosine-protein kinase JAK2; experiment: Inhibition of JAK2 (unknown origin) using Poly-(Glu,Tyr 4:1) peptide as substrate in presence of ATP by ADP-Glo reagent based assay
HeLa = experiment: Antiproliferative activity against human HeLa cells assessed as cell growth inhibition incubated for 48 hrs by MTT assay; type: functional, cell-based
A549 [15] = experiment: Induction of apoptosis in human A549 cells assessed as viable cells at 500 nM incubated for 24 hrs by Annexin V-FITC/PI staining based flow cytometry (reference value: 93 %); type: functional; conditions: read-out: Activity
A2780 = experiment: Antiproliferative activity against human A2780 cells assessed as cell growth inhibition incubated for 48 hrs by MTT assay; type: functional, cell-based; conditions: A2780, 48 h
[16] = Antiproliferative activity against human HCT-8/VCR cells assessed as cell growth inhibition incubated for 48 hrs by MTT assay; type: functional, cell-based
[17] = Metabolic stability in mouse liver microsomes assessed as half life incubated for 10 mins in presence of NADPH by LC-MS/MS analysis; type: ADME, Microsome
A549 [18] = experiment: Induction of apoptosis in human A549 cells assessed as late apoptotic cells at 500 nM incubated for 24 hrs by Annexin V-FITC/PI staining based flow cytometry (reference value: 1.72 %); type: functional
NCI/ADR-RES = experiment: cells; conditions: Homo sapiens, 48 h
Description: Antiproliferative activity against human MCF7ADR cells assessed as cell growth inhibition incubated for 48 hrs by MTT assay

KP-4 = experiment: Antiproliferative activity against human KP-4 cells assessed as cell growth inhibition incubated for 48 hrs by MTT assay; type: functional, cell-based; conditions: KP-4, 48 h
A549 [19] = experiment: Induction of mitochondrial membrane potential loss in human A549 cells by measuring red fluorescence at 500 nM incubated for 16 hrs by JC-1 staining based flow cytometry analysis (reference value: 99.3 %); type: functional
A2780/Taxol = experiment: Antiproliferative activity against human A2780T cells assessed as cell growth inhibition incubated for 48 hrs by MTT assay; type: functional, cell-based
A549 [20] = experiment: Induction of apoptosis in human A549 cells assessed as necrotic cells at 500 nM incubated for 24 hrs by Annexin V-FITC/PI staining based flow cytometry (reference value: 0.67 %); type: functional
A549 [21] = experiment: Induction of apoptosis in human A549 cells assessed as early apoptotic cells at 500 nM incubated for 24 hrs by Annexin V-FITC/PI staining based flow cytometry (reference value: 4.61 %); type: functional
HCT-8 = experiment: Antiproliferative activity against human HCT-8 cells assessed as cell growth inhibition incubated for 48 hrs by MTT assay; type: functional, cell-based; conditions: HCT-8, 48 h
A549 [22] = experiment: Induction of mitochondrial membrane potential loss in human A549 cells by measuring green fluorescence at 500 nM incubated for 16 hrs by JC-1 staining based flow cytometry analysis (reference value: 0.7 %); type: functional
[23] = target: Tyrosine-protein kinase JAK1 (Homo sapiens, UniProt P23458); experiment: Inhibition of JAK1 (unknown origin) using Poly-(Glu,Tyr 4:1) peptide as substrate in presence of ATP by ADP-Glo reagent based assay
[24] = Antiproliferative activity against human A549/DDP cells assessed as cell growth inhibition incubated for 48 hrs by MTT assay; type: functional, cell-based

T1 sequence (O60674 whole entry): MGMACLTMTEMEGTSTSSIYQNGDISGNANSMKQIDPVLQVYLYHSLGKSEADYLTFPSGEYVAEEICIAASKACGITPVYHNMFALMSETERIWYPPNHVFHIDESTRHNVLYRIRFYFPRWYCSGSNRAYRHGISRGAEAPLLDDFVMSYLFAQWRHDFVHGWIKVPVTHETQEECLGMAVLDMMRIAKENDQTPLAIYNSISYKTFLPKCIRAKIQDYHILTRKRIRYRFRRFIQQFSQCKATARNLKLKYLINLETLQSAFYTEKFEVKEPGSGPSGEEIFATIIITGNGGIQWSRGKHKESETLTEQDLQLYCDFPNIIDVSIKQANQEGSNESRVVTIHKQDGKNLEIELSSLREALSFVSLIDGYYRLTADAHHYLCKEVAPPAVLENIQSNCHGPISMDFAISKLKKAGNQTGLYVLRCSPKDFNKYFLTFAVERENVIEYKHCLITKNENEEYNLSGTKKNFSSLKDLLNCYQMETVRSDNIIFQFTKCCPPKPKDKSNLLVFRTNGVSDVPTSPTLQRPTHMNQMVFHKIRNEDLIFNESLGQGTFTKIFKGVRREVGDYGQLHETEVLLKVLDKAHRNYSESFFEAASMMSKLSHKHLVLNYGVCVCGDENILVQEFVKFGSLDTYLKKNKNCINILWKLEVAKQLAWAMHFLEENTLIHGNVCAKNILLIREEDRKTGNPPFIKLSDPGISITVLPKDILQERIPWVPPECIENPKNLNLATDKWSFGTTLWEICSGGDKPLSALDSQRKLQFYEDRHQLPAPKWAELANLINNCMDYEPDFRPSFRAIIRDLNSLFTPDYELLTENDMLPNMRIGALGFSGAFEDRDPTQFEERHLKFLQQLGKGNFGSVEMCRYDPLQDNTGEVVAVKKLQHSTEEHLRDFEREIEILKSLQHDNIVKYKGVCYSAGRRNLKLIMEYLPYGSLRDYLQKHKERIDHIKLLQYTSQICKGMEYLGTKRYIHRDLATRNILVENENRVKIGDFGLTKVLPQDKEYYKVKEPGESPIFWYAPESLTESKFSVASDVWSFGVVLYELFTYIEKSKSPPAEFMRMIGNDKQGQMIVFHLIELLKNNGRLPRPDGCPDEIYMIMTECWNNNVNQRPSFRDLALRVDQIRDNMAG
Chain of Tyrosine-protein kinase JAK1 (P23458 whole entry): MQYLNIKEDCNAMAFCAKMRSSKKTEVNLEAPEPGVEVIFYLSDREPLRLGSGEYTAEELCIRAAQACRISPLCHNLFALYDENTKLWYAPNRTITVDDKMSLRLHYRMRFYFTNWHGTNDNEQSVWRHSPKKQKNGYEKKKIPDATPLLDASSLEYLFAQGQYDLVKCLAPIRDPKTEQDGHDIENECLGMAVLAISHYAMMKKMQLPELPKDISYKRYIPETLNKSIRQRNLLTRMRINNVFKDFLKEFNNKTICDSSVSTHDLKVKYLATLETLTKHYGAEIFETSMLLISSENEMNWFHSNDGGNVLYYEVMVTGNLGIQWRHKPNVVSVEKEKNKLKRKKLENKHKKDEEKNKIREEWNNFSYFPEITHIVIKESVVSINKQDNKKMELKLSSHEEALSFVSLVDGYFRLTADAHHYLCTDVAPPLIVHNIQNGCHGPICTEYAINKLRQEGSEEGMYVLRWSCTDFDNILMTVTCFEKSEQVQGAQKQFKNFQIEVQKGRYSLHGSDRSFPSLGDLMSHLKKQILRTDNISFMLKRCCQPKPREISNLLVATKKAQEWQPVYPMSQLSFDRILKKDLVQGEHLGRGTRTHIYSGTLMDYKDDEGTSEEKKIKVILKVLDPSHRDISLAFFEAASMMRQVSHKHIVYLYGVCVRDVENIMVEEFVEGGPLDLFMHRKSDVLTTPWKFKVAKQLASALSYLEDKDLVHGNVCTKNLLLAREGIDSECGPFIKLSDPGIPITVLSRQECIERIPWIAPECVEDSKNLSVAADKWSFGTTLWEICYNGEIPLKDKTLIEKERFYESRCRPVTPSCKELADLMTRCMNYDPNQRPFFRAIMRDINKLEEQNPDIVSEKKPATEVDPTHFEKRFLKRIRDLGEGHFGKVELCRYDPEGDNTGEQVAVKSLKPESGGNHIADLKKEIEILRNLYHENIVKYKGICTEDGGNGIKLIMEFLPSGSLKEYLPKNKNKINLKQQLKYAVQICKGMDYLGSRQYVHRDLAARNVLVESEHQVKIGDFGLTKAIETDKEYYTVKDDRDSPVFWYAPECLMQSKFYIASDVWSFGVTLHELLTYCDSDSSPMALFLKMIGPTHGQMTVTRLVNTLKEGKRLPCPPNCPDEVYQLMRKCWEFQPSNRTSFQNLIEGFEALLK

| SMILES | IC50 (PC-3) [nM] | IC50 at 48 h [1] [nM] | IC50 (MCF7) [nM] | IC50 (HT-29) [nM] | IC50 (HepG2) [nM] | IC50 at 48 h [3] [nM] | IC50 at 48 h [4] [nM] | IC50 (A549 [7]) [nM] | IC50 at 48 h [9] [nM] | inhibition [10] [%] | IC50 (CWR22R) [nM] | IC50 at 48 h [11] [nM] | IC50 (BXPC-3) [nM] | IC50 (COLO 205) [nM] | also measured |
| --- | --- | --- | --- | --- | --- | --- | --- | --- | --- | --- | --- | --- | --- | --- | --- |
| COc1cc2c(c(OC)c1OC)-c1ccc(OC)c(=O)cc1[C@@H](NC(C)=O)CC2 [COLCHICINE] | 79 | 21.8 | 46 | 31 | 75 | 9.3 | 269 | 64 | 9200 | 5.7 | 18 | 697 | 41 | 12.8 | Activity (A549 [2]): 0.1%; Activity (A549 [5]): 93.9%; viability at 0.05 µM (A549 [6]): 57%; Activity (A549 [8]): 24.1%; Activity (A549 [12]): 15.3%; Activity (A549 [13]): 3.6% |
| CN1CCN(c2cccc(Nc3nc4c(-c5ccc(S(C)(=O)=O)cc5)cccn4n3)c2)CC1 | 15100 | 4930 | 1230 | 961 | 2040 | 2830 | 388 | 358 | 216 | 99 | 5790 | 172 | 730 | 1550 | IC50 [14]: 6 nM; IC50 (HeLa): 1260 nM; viability at 0.5 µM (A549 [15]): 65.7%; IC50 (A2780): 289 nM; IC50 [16]: 5780 nM; half-life [17]: 13.1 min; Activity (A549 [18]): 16.6%; IC50 (NCI/ADR-RES): 3530 nM; IC50 (KP-4): 372 nM; Activity (A549 [19]): 96.5%; IC50 (A2780/Taxol): 394 nM; Activity (A549 [20]): 2.8%; Activity (A549 [21]): 14.9%; IC50 (HCT-8): 1140 nM; Activity (A549 [22]): 3.5%; IC50 [23]: 12 nM; IC50 [24]: 1530 nM |
